Molecular target: T1, TLR7 (Mus musculus, UniProt P58681)
T1 sequence (P58681 27-1050): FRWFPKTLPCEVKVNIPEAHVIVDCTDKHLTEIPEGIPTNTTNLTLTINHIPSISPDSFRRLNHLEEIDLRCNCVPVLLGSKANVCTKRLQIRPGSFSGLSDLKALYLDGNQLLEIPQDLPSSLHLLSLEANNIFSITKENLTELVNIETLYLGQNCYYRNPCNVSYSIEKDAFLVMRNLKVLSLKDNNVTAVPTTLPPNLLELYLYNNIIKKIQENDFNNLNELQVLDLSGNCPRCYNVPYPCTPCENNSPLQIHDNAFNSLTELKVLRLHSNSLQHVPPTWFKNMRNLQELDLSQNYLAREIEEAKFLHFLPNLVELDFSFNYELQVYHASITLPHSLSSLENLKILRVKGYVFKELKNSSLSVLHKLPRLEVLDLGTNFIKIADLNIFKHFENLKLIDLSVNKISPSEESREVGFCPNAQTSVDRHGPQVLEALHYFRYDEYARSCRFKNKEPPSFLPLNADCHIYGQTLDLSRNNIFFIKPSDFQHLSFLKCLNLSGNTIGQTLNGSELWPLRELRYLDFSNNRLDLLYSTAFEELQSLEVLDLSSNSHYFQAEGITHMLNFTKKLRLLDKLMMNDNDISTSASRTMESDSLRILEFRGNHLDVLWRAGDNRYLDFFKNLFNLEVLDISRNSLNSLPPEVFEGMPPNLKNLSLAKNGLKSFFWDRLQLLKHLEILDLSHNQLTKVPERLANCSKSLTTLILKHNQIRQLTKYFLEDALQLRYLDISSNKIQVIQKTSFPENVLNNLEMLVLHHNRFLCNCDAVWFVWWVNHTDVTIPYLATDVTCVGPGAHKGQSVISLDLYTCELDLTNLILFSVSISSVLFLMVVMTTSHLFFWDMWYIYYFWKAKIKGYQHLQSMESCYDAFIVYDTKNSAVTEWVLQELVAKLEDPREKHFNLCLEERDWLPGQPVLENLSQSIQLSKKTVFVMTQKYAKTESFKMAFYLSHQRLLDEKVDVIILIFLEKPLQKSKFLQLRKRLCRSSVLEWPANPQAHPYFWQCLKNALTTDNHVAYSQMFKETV
Assay: In vivo inhibition of loxoribine-mediated cytokine induction in mice
Set-up: from tissue; host or cells: whole animal: female Balb/C mice, plasma cytokines; species or system Balb/C mice
Protocol: Cytokine ELISA. All cytokines were quantified using sandwich ELISA kits according to the manufacturer's instructions. These were mouse and human IFN-α (PBL Biomedical; Piscataway, N.J.) and IL-6 (eBioscience; San Diego, Calif.).
In Vivo Cytokine Induction. Animal studies were performed at Protiva Biotherapeutics in accordance with Canadian Council on Animal Care guidelines and following protocol approval by the local Animal Care and Use Committee. Female Balb/C mice were subjected to a two-week quarantine and acclimation period prior to use at six to eight-weeks of age. RNA formulations were administered by standard injection in the lateral tail vein in 0.2 ml PBS. Six hours after injection, blood was collected by cardiac puncture and processed as plasma for cytokine analysis. In experiments studying inhibition of cytokine induction by loxoribine, formulated RNA (100 μg) was administered IV 2 h prior to IV administration of 1 mg loxoribine in PBS. Blood was collected by cardiac puncture 2 h after administration of loxoribine and processed as plasma for cytokine analysis.

[1] = 100 μg formulated RNA IV 2 h prior to 1 mg Lox IV, plasma 2 h after Lox

## polyUmod21: 2′OMe-uridine homopolymer of 21 nucleotides in length (UUUUUUUUUUUUUUUUUUUUU; all 2'-O-methyl, backbone not given here)
[1]
  reduction of plasma IFN-α compared to PBS pre-treatment: 79%+/−5%
  reduction of plasma IFN-α compared to mice treated with GFP-S ssRNA: 92%+/−2%
  reduction of plasma IL-6 compared to PBS pre-treatment: 72%+/−8%
  reduction of plasma IL-6 compared to mice treated with GFP-S ssRNA: 96%+/−1%
pre-treatment 2 h prior to 1 mg Lox
  loxoribine-mediated cytokine induction relative to GFP-S ssRNA and PBS treated mice: significantly reduced
